Data on three molecules can be found in patent US12606836B2, “Process for extracellular secretion of Brazzein” (MAGELLAN LIFE SCIENCES LTD., priority 2016, dated 2026).

One data set concerns taste panel. Put plainly: Sensory analysis of purified Brazzein (taste panel, sweetness threshold versus sucrose). Format: in vivo, humans. Particulars: for Experimental Threshold: first sample sensed as sweet, 200 microliter applied to anterior tongue, 30 tasters; for Relative Sweetness (by weight): relative to sucrose, 1% (w/v) sucrose reference. The protocol: A portion of the purified Brazzein (A28D) was lyophilized and re-dissolved in deionized water to 1.0 mg/mL. From this, Brazzein (A28D) solutions with following concentrations were made: 0.5, 1.0, 2.0, 3.0, 4.0, 5.0, 6.0, 7.0, 8.0, 9.0, and 10.0 μg/mL. A 1% (w/v) sucrose solution, the lowest concentration of sucrose detectable by humans, was used as a reference. The taste panel consisted of fifteen females and fifteen males with normal health and normal sense of taste. Two-hundred-microliter samples were applied to the anterior region of the tongue. After each test, the mouth was rinsed with tap water. The tasters sampled from the lower concentration samples to higher. Each taster chose the first sample that could be sensed for sweetness. Sweetness potencies were reported relative to sucrose on a weight basis.

Data set [1] can be described thus: Thermal stability of secreted Brazzein (heating of cell free supernatant, SDS-PAGE). Type of data set: physicochemical. Particulars: cell free supernatant heated at 80° C. for 60 mins, centrifuged at 17,500 g, FIG. 11. The protocol:
Protein expression was analyzed by SDS-PAGE on 15% Tris-Glycine gels. To analyze protein in the cell culture medium, 17 μL of cell free supernatant (corresponding to 0.07% of total culture volume) was mixed with 17 μL of 2× reducing sample buffer, heated for 5 mins in a PCR machine, briefly spun and loaded into the gel. The gel was run at a constant voltage of 125V till the dye front exited the gel. The gels were washed in MILLI-Q® water for 1 hour and stained with Coomassie Stain. To analyze protein in whole cells, frozen cell pellets were thawed, re-suspended in 50 μL of MILLI-Q*water. 17 μL of resuspended cells were mixed with 17 μL of 2× Reducing Sample Buffer, heated for 5 mins in a PCR machine, briefly spun and loaded into the gel. The gel was run at constant voltage of 125V till the dye front exited it. The gels were washed in MILLI-Q*water for 1 hour and stained with Coomassie Stain.
[…] The supernatant was analyzed by SDS-PAGE. Protein quantitation was done using BCA assay kit. As a result of heating, most of the endogenous E. coli proteins present in the cell free supernatant precipitated, leaving >90% pure Brazzein in solution.

The conditions of data set [2]: cited from earlier work.

Read-outs that look alike come from different tables or passages of the source.

For `OC[C@H]1O[C@@](CO)(O[C@H]2O[C@H](CO)[C@@H](O)[C@H](O)[C@H]2O)[C@@H](O)[C@@H]1O` [Sucrose, reference compound], in the data set with taste panel, the “Experimental Threshold” value amounted to 1 % [g/100 mL] and the “Relative Sweetness (by weight)” value was 1.

Regarding “Brazzein: high-potency thermostable sweet protein, originally isolated from the fruit of Pentadiplandra brazzeana Baillon (DKCKKVYENYPVSKCQLANQCNYDCKLDKHARSGECFYDEKRNLQCICDYCEY; Synthetic: Amino Acid Sequence of pelB-Brazzein(A28D))”, the “thermal stability: Brazzein in soluble supernatant after heating” value in data set [1] was “Presence of Brazzein in lanes 1 and 2”. For the same molecule, the sweeter than sucrose is listed as 2,500 times in data set [2] (in comparison to 2% sucrose aqueous solution) and 500 times in data set [2] (in comparison to 10% sucrose).

B1: Brazzein(A28D): wild-type TypeIII Brazzein; residue 50 of pelB-Brazzein mutated from Alanine to Aspartate; mature protein from Seq Id No. 8 (protein)
chain: MKYLLPTAAAGLLLLAAQPAMADKCKKVYENYPVSKCQLANQCNYDCKLDKHARSGECFYDEKRNLQCICDYCEY
modifications: misc_feature 1..234 Synthetic: nucleotide Sequence encoding pelB conjugated to Brazzein(A28D)
Take B1: in the data set on taste panel, the “Experimental Threshold” value amounted to 0.0006 % [g/100 mL] and the “Relative Sweetness (by weight)” value was 1660. The “sweeter than sucrose on a weight basis” value with taste panel (relative to 1% (w/v) sucrose reference) was determined as 1660 times.
